The text below walks through data of patent publication US11649218B2, “C-Abl tyrosine kinase inhibitory compound embodiments and methods of making and using the same” (The USA, as represented by the Secretary, Dept. of Health …, priority 2018, dated 2023).

This assay relates to Leukemia K562 cell. Description: Leukemia K562 cell proliferation/viability assay (CellTiterGlo, 48 hours). On the set-up: unit not given here. To be noted: K562 cells. In kind it is cell-based. As for the experimental part: C-Abl is encoded by the ABL1 gene (NCBI Gene ID NO. 25). […] Assays for determining if a small molecule inhibits c-Abl activity are known. Non-limiting examples include cell proliferation assays using cancer cells that are BCR-Abl positive and depend on BCR-Abl for growth, such as the leukemia cell line K562. […] In some embodiments described herein, compounds are tested for ability to reduce K562 cell proliferation in an HTS adapted assay which measures cell viability using the reagent CellTiterGlo after 48 hours treatment.
In general terms: ATP-based viability assays read luminescence as a measure of living cells.
As for `NC(=O)c1cccc(-c2ccc3c(c2)C(=O)Nc2cc(OC(F)(F)F)ccc2O3)c1` [NCGC00356842, 3-(11-Oxo-8-(trifluoromethoxy)-10,11-dihydrodibenzo[b,f][1,4]oxazepin-2-yl)benzamide], the Efficacy was −67.0. In turn, `CS(=O)(=O)Nc1cccc(-c2ccc3c(c2)CNc2cc(OC(F)(F)F)ccc2O3)c1` [NCGC00371644, N-(3-(8-(Trifluoromethoxy)-10,11-dihydrodibenzo[b,f][1,4]oxazepin-2-yl)phenyl)methanesulfonamide] displayed an Efficacy of −90.7. The same measure for `O=C1Nc2cc(OC(F)(F)F)ccc2Oc2ccc(-c3ccc(CN4CCNCC4)s3)cc21` [NCGC00388560, 2-(5-(Piperazin-1-ylmethyl)thiophen-2-yl)-8-(trifluoromethoxy)dibenzo[b,f][1,4]oxazepin-11(10H)-one]: −95.0. Take `O=C(NCCO)c1cccc(-c2ccc3c(c2)C(=O)Nc2cc(OC(F)(F)F)ccc2N3)c1` [NCGC00355556, N-(2-hydroxyethyl)-3-(11-oxo-8-(trifluoromethoxy)-10,11-dihydro-5H-dibenzo[b,e][1,4]diazepin-2-yl)benzamide]: the Efficacy was −90.9. As to `O=C1Nc2cc(OC(F)(F)F)ccc2Oc2ccc(-c3cccc(CO)c3)cc21` [NCGC00415061, 2-(3-(Hydroxymethyl)phenyl)-8-(trifluoromethoxy)dibenzo[b,f][1,4]oxazepin-11(10H)-one], the Efficacy is −71.4. The same measure for `CS(=O)(=O)Nc1ccc(-c2ccc3c(c2)C(=O)Nc2cc(OC(F)(F)F)ccc2O3)cc1` [NCGC00356666, N-(4-(11-Oxo-8-(trifluoromethoxy)-10,11-dihydrodibenzo[b,f][1,4]oxazepin-2-yl)phenyl)methanesulfonamide]: −79.9; for `CN1C(=O)c2cc(-c3cccc(N(C)S(C)(=O)=O)c3)ccc2Oc2ccc(OC(F)(F)F)cc21` [NCGC00384286, N-Methyl-N-(3-(10-methyl-11-oxo-8-(trifluoromethoxy)-10,11-dihydrodibenzo[b,f][1,4]oxazepin-2-yl)phenyl)methanesulfonamide]: −54.6; for `O=C1Nc2cc(OC(F)(F)F)ccc2Oc2ccc(-c3cccc(C(=O)N4CCOCC4)c3)cc21` [NCGC00356745, 2-(3-(Morpholine-4-carbonyl)phenyl)-8-(trifluoromethoxy)dibenzo[b,f][1,4]oxazepin-11(10H)-one]: −98.3.

Compound `O=C1Nc2cc(OCC(F)(F)F)ccc2Oc2ccc(-c3ccnc(N4CCOCC4)c3)cc21` [NCGC00481504, 2-(2-Morpholinopyridin-4-yl)-8-(2,2,2-trifluoroethoxy)dibenzo[b,f][1,4]oxazepin-11(10H)-one] registered an Efficacy of −85.1. Then `CC(=O)c1csc(-c2ccc3c(c2)C(=O)Nc2cc(OC(F)(F)F)ccc2O3)c1` [NCGC00388580, 2-(4-Acetylthiophen-2-yl)-8-(trifluoromethoxy)dibenzo[b,f][1,4]oxazepin-11(10H)-one], with −92.6; and `O=C1Nc2cc(OC(F)(F)F)ccc2Oc2ccc(CCCB(O)O)cc21` [NCGC00390142, (3-(11-Oxo-8-(trifluoromethoxy)-10,11-dihydrodibenzo[b,f][1,4]oxazepin-2-yl)propyl)boronic acid], with −103.4. Then `O=C1Nc2cc(OC(F)(F)F)ccc2Oc2ccc(-c3cccnc3)cc21` [NCGC00371308, 2-(Pyridin-3-yl)-8-(trifluoromethoxy)dibenzo[b,f][1,4]oxazepin-11(10H)-one], with −7.0; and `O=C1Nc2cc(OC(F)(F)F)ccc2Oc2ccc(-c3cnc4ccnn4c3)cc21` [NCGC00409812, 2-(pyrazolo[1,5-a]pyrimidin-6-yl)-8-(trifluoromethoxy)dibenzo[b,f][1,4]oxazepin-11(10H)-one], with −69.0. As for `O=C1Nc2cc(OC(F)(F)F)ccc2Oc2ccc(CCB(O)O)cc21` [NCGC00390141, (2-(11-Oxo-8-(trifluoromethoxy)-10,11-dihydrodibenzo[b,f][1,4]oxazepin-2-yl)ethyl)boronic acid], the Efficacy is reported as −45.8.
